For the experiment, the target named is T1, hQ23 (HEK-293 cell line stably transfected with one of the members of the KCNQ family) (Homo sapiens, UniProt O43525+O43526).
T1 construct: expressed in transfected cells; host or cells: HEK-293, stably transfected
The experiment can be described thus: Thallium flux assay for KCNQ channel blockers (FLIPR, BTC dye). It is filed as cell-based. The method, then:
Thallium Flux Assay for KCNQ channel blockers. Approximately 20,000 cells/well of an HEK-293 cell line stably transfected with one of the members of the KCNQ family were plated into clear-bottom, black-walled, poly-D-lysine coated, 384 well assay plates in 20 μl/well of low chloride plating medium. Low chloride plating medium was composed of the following: sodium gluconate, 109 mM; potassium gluconate, 5.4 mM; hemi-calcium gluconate, 3.6 mM; magnesium sulfate, 0.8 mM; sodium bicarbonate, 26.2 mM; sodium phosphate monobasic, 1.2 mM; glutamine, 2 mM; glucose, 5 mM; HEPES (pH 7.3) 10 mM, 10× concentration of vitamins (Gibco/LifeTechnologies catalog #11120-052) and 1× concentration of amino acids (Gibco/LifeTechnologies catalog #11130-051).
Following overnight incubation in a 5% CO2 incubator at 37° C., the cells in the plates were loaded with 20 μl/well of a dye loading solution containing the acetomethoxy ester of the thallium-sensitive fluorescent dye BTC, BTC-AM (2 μM) and pluronic acid (0.02% w/v) in chloride free assay buffer. Chloride free assay buffer was composed of the following: sodium gluconate, 140 mM; potassium gluconate, 2.5 mM; hemi-calcium gluconate, 6 mM; hemi-magnesium gluconate, 2 mM; glucose, 5 mM; HEPES (pH 7.3), 10 mM.
Following incubation in the dye loading solution for from 45–90 min at room temperature, the dye loading solution was removed by aspiration and replaced with 40 μl/well of chloride free assay buffer.
Prior to addition to cell plates, test compound and standard compounds were dissolved in DMSO to 3 mM concentration. Compounds were then diluted from the 3 mM stock to 100-fold over the final assay concentration in DMSO. Finally, compounds in DMSO were diluted from 100-fold over the final assay concentration to 5-fold over the final assay concentration in chloride free assay buffer.
Ten μl/well of compounds at 5-fold over the final assay concentration were then added to the cell plates. This represents a 1:5 dilution, yielding the final test concentration. The wells used for test compounds were A1–P20. Wells A21–P22 contained a standard ‘blocker’ and a fully efficacious concentration (positive control). Wells A23–P24 contained chloride free assay buffer containing 1% DMSO (negative control).
Following addition of test compounds, the plates were loaded onto the Molecular Devices FLIPR. The 488 nm line of the argon laser was used to excite the BTC and the emission filter was a 540(+/−30) nm. Images were collected at 1 Hz. Ten seconds of baseline were collected and then the FLIPR was used to add 13 μl/well of a stimulus buffer composed of Tl2SO4, 25 mM; sodium gluconate, 30 mM; potassium sulfate, 50 mM; hemi-calcium gluconate, 6 mM; hemi-magnesium gluconate, 2 mM; glucose, 5 mM; HEPES (pH 7.3), 10 mM in chloride free assay buffer. Images were collected for an additional 60 seconds.
For data analysis, the amplitude of the average of the negative controls was subtracted from all wells. The amplitudes of the test compounds were then compared to the value of four standard deviations of the negative control wells. The lowest concentration of a test compound sufficient to generate a signal amplitude greater than or equal to four standard deviations from the amplitude of the negative controls was defined as the minimal active concentration.
For generating IC50 values, compounds were serially diluted in 1:3 volume increments to produce a 10 point concentration series. IC50 values were calculated by fitting the resulting amplitudes to a single-site logistic equation. IC50 was defined as the concentration of test compound required to yield 50% of the response of the positive control.

The mark [1] stands for this setting: hQ23 cells, thallium flux assay.

The term EC50 denotes the concentration giving half of the maximal effect.

T1 sequence (O43526 whole entry): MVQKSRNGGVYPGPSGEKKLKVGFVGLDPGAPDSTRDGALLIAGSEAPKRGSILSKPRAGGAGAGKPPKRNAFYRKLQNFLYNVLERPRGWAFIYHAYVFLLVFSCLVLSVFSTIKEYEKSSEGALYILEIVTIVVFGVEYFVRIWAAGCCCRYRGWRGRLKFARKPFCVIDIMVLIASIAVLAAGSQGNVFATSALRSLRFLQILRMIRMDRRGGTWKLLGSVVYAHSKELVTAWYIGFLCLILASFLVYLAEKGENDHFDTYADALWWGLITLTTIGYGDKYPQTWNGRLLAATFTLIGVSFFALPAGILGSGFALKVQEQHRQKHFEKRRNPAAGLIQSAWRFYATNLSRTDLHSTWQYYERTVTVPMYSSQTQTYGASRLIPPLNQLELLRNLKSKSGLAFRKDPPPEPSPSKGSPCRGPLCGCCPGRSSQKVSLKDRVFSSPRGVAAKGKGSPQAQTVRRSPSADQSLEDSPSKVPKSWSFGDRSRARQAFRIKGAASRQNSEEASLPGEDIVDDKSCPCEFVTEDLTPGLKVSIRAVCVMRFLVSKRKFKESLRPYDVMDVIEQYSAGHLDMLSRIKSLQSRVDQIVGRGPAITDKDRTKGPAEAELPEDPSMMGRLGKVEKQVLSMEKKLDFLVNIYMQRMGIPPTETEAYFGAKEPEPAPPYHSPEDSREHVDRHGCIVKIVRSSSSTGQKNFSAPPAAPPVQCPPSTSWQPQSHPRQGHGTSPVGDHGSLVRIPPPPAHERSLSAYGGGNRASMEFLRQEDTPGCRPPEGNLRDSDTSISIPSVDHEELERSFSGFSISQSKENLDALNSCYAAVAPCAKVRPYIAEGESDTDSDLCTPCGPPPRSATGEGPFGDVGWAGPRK
T1 sequence (O43525 whole entry): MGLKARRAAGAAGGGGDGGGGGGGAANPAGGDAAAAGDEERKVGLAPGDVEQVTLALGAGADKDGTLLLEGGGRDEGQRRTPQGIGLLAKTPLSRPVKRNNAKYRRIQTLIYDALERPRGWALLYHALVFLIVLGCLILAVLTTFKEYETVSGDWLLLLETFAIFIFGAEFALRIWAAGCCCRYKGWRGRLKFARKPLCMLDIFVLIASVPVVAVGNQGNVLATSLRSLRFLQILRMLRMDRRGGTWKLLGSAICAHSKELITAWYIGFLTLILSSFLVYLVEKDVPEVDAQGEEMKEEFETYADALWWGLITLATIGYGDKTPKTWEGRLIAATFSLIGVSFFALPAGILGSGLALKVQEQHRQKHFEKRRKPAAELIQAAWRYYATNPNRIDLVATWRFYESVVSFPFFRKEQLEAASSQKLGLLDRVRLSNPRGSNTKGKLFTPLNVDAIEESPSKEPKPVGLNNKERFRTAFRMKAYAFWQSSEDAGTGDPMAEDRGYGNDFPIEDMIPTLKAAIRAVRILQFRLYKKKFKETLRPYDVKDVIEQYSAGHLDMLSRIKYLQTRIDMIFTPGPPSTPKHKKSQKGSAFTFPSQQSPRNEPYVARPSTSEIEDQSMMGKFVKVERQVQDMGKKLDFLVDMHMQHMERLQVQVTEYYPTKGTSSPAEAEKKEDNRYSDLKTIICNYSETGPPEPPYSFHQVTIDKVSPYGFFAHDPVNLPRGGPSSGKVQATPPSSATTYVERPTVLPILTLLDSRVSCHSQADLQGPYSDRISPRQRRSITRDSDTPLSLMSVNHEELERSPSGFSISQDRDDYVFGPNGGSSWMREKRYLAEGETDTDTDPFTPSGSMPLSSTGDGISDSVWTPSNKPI

`CC1CCC(Nc2ncc(C(=O)N3CCc4ccccc4C3)c(C3(c4ccccc4)CCCC3)n2)CC1` (centres unmarked) [Example 73, isoquinoline, 1,2,3,4-tetrahydro-2-[[2-[(4-methylcyclohexyl)amino]-4-(1-phenylcyclopentyl)-5-pyrimidinyl]carbonyl]-] showed an EC50 (hQ23 cells, thallium flux) of 798 nM.

Take `CCC(C)Nc1ncc(C(=O)NCc2ccc(Cl)cc2Cl)c(C2(c3ccccc3)CCCC2)n1` (centres unmarked) [Example 114, 5-pyrimidinecarboxamide, N-[(2,4-dichlorophenyl)methyl]-2-[(1-methylpropyl)amino]-4-(1-phenylcyclopentyl)-]: the midpoint of the response (hQ23 cells, thallium flux), the EC50, lay at 102 nM. For the setting “hQ23 cells, thallium flux”, `CC1CCCN(c2ncc(C(=O)NCc3cc(F)cc(C(F)(F)F)c3)c(C3(c4ccc(Cl)cc4)CCCC3)n2)C1` (centres unmarked) [Example 192, 5-pyrimidinecarboxamide, 4-[1-(4-chlorophenyl)cyclopentyl]-N-[[3-fluoro-5-(trifluoromethyl)phenyl]methyl]-2-(3-methyl-1-piperidinyl)-] gave an EC50 of 10 nM.

`O=C(NCc1ccc2c(c1)OCO2)c1cnc(N2CCCC2)nc1C1(c2ccc(Cl)cc2)CCCC1` [Example 152, 5-pyrimidinecarboxamide, N-(1,3-benzodioxol-5-ylmethyl)-4-[1-(4-chlorophenyl)cyclopentyl]-2-(1-pyrrolidinyl)-] gave a concentration for a half-maximal effect (EC50) (hQ23 cells, thallium flux) of 107 nM.

As to `CC(NC(=O)c1cnc(NC2CCCC2)nc1C1(c2ccccc2)CCCC1)c1ccc(F)cc1` (centres unmarked) [Example 136, 5-pyrimidinecarboxamide, 2-(cyclopentylamino)-N-[1-(4-fluorophenyl)ethyl]-4-(1-phenylcyclopentyl)-], where the note is “hQ23 cells, thallium flux”, the EC50 is 413 nM. Consider `CC1CCCN(c2ncc(C(=O)N(C)CCc3ccccc3)c(C3(c4ccc(F)cc4)CCCC3)n2)C1` (centres unmarked) [Example 221, 5-pyrimidinecarboxamide, 4-[1-(4-fluorophenyl)cyclopentyl]-N-methyl-2-(3-methyl-1-piperidinyl)-N-(2-phenylethyl)-], for which the EC50 (hQ23 cells, thallium flux) is 356 nM.

As for `CN1CCN(c2ncc(C(=O)NCc3ccc(Cl)c(Cl)c3)c(C3(c4ccc(Cl)cc4)CCCC3)n2)CC1` [Example 173, 5-pyrimidinecarboxamide, 4-[1-(4-chlorophenyl)cyclopentyl]-N-[(3,4-dichlorophenyl)methyl]-2-(4-methyl-1-piperazinyl)-], for the setting “hQ23 cells, thallium flux”, a half-maximal response (EC50) required 820 nM. Under setting [1], `CC1CCCN(c2ncc(C(=O)NCc3ccc(Cl)c(Cl)c3)c(C3(c4ccc(F)cc4)CCCC3)n2)C1` (centres unmarked) [Example 255, 5-pyrimidinecarboxamide, N-[(3,4-dichlorophenyl)methyl]-4-[1-(4-fluorophenyl)cyclopentyl]-2-(3-methyl-1-piperidinyl)-] returned a 50% effective concentration (EC50) of 10 nM.

In turn, `CC1CCCN(c2ncc(C(=O)NCc3ccc(F)cc3F)c(C3(c4ccc(F)cc4)CCCC3)n2)C1` (centres unmarked) [Example 269, 5-pyrimidinecarboxamide, N-[(2,4-difluorophenyl)methyl]-4-[1-(4-fluorophenyl)cyclopentyl]-2-(3-methyl-1-piperidinyl)-] yielded an EC50 under setting [1] of 56 nM.

On to `CC1CCC(Nc2ncc(C(=O)NCc3cc(F)cc(C(F)(F)F)c3)c(C3(c4ccc(Cl)cc4)CCCC3)n2)CC1` (centres unmarked) [Example 190, 5-pyrimidinecarboxamide, 4-[1-(4-chlorophenyl)cyclopentyl]-N-[[3-fluoro-5-(trifluoromethyl)phenyl]methyl]-2-[(4-methylcyclohexyl)amino]-], for which the EC50 (hQ23 cells, thallium flux) was 163 nM.

Where the note is “hQ23 cells, thallium flux”, `CC1CCC(Nc2ncc(C(=O)NC(C)c3ccc(F)cc3)c(C3(c4ccc(Cl)cc4)CCCC3)n2)CC1` (centres unmarked) [Example 197, 5-pyrimidinecarboxamide, 4-[1-(4-chlorophenyl)cyclopentyl]-N-[1-(4-fluorophenyl)ethyl]-2-[(4-methylcyclohexyl)amino]-] registered an EC50 of 233 nM. For `CC1CCC(Nc2ncc(C(=O)NCc3ccc(Cl)c(Cl)c3)c(C3(c4ccccc4)CCCC3)n2)CC1` (centres unmarked) [Example 106, 5-pyrimidinecarboxamide, N-[(3,4-dichlorophenyl)methyl]-2-[(4-methylcyclohexyl)amino]-4-(1-phenylcyclopentyl)-], the EC50 (hQ23 cells, thallium flux) is 130 nM. As to `CC1CCC(Nc2ncc(C(=O)NCc3ccc(Cl)cc3Cl)c(C3(c4ccccc4)CC3)n2)CC1` (centres unmarked) [Example 39, 5-pyrimidinecarboxamide, N-[(2,4-dichlorophenyl)methyl]-2-[(4-methylcyclohexyl)amino]-4-(1-phenylcyclopropyl)-], the response (Table 2, thallium flux, HEK-293) was half-maximal at 551 nM (EC50). Compound `CC1CCC(Nc2ncc(C(=O)NCc3ccc(F)cc3F)c(C3(c4ccc(Cl)cc4)CCC3)n2)CC1` (centres unmarked) [Example 65, 5-pyrimidinecarboxamide, 4-[1-(4-chlorophenyl)cyclobutyl]-N-[(2,4-difluorophenyl)methyl]-2-[(4-methylcyclohexyl)amino]-] returned a concentration for a half-maximal effect (EC50) (Table 3, thallium flux, HEK-293) of 56 nM. `O=C(NCc1ccc(Cl)cc1Cl)c1cnc(N2CCCC2)nc1C1(c2ccc(Cl)cc2)CCCC1` [Example 178, 5-pyrimidinecarboxamide, 4-[1-(4-chlorophenyl)cyclopentyl]-N-[(2,4-dichlorophenyl)methyl]-2-(1-pyrrolidinyl)-]: for the setting “hQ23 cells, thallium flux”, the 50% effective concentration (EC50) was found to be 74 nM. Regarding `CC(NC(=O)c1cnc(NC2CC2)nc1C1(c2ccc(F)cc2)CCCC1)c1cccc2ccccc12` (centres unmarked) [Example 240, 5-pyrimidinecarboxamide, 2-(cyclopropylamino)-4-[1-(4-fluorophenyl)cyclopentyl]-N-[1-(1-naphthalenyl)ethyl]-], the half-maximal effective concentration (EC50) under setting [1] came to 507 nM. As for `CN(C)CCNc1ncc(C(=O)NCc2cc(F)cc(C(F)(F)F)c2)c(C2(c3ccc(Cl)cc3)CCCC2)n1` [Example 195, 5-pyrimidinecarboxamide, 4-[1-(4-chlorophenyl)cyclopentyl]-2-[[2-(dimethylamino)ethyl]amino]-N-[[3-fluoro-5-(trifluoromethyl)phenyl]methyl]-], the midpoint of the response (hQ23 cells, thallium flux), the EC50, lay at 634 nM.

With `CCN(C)C(=O)c1cnc(N2CCCC(C)C2)nc1C1(c2ccccc2)CCCC1` (centres unmarked) [Example 83, 5-pyrimidinecarboxamide, N-ethyl-N-methyl-2-(3-methyl-1-piperidinyl)-4-(1-phenylcyclopentyl)-], the EC50 (hQ23 cells, thallium flux) stood at 605 nM. The same measure, in the same setting: as for `CC1CCN(c2ncc(C(=O)NCc3ccc(C(F)(F)F)cc3)c(C3(c4ccc(Cl)cc4)CCCC3)n2)CC1` [Example 203, 5-pyrimidinecarboxamide, 4-[1-(4-chlorophenyl)cyclopentyl]-2-(4-methyl-1-piperidinyl)-N-[[4-(trifluoromethyl)phenyl]methyl]-], the figure is 32 nM.

On to `O=C(NCc1ccc2c(c1)OCO2)c1cnc(NC2CC2)nc1C1(c2ccc(F)cc2)CCCC1` [Example 233, 5-pyrimidinecarboxamide, N-(1,3-benzodioxol-5-ylmethyl)-2-(cyclopropylamino)-4-[1-(4-fluorophenyl)cyclopentyl]-], for which the midpoint of the response under setting [1], the EC50, lay at 436 nM. As to `CN(C)CCNc1ncc(C(=O)NCc2cc(F)cc(C(F)(F)F)c2)c(C2(c3ccccc3)CCCC2)n1` [Example 129, 5-pyrimidinecarboxamide, 2-[[2-(dimethylamino)ethyl]amino]-N-[[3-fluoro-5-(trifluoromethyl)phenyl]methyl]-4-(1-phenylcyclopentyl)-], the half-maximal effective concentration (EC50) (hQ23 cells, thallium flux) was found to be 20 nM. Regarding `CC1CCCN(C(=O)c2cnc(NC3CC3)nc2C2(c3ccc(Cl)cc3)CCCC2)C1` (centres unmarked) [Example 144, piperidine, 1-[[4-[1-(4-chlorophenyl)cyclopentyl]-2-(cyclopropylamino)-5-pyrimidinyl]carbonyl]-3-methyl-], a half-maximal response (hQ23 cells, thallium flux) (EC50) required 884 nM. On the same count and under the same terms, as for `CC1CCN(c2ncc(C(=O)NCc3ccc(F)cc3F)c(C3(c4ccc(Cl)cc4)CCCC3)n2)CC1` [Example 188, 5-pyrimidinecarboxamide, 4-[1-(4-chlorophenyl)cyclopentyl]-N-[(2,4-difluorophenyl)methyl]-2-(4-methyl-1-piperidinyl)-], the figure is 16 nM.

Values taken from patent US7091202B2, “4-arylspirocycloalkyl-2-aminopyrimidine carboxamide KCNQ potassium channel modulators” (Bristol-Myers Squibb Company, priority 2004, dated 2006).
